These are literature values, as cited in patent publication US6900317B2, “Salts of the CGRP antagonist BIBN4096 and inhalable powdered medicaments containing them” (Boehringer Ingelheim Pharma GmbH & Co. KG, priority 2002, dated 2005).

The conditions of this data set: conventional preparations.

`NCCCC[C@H](NC(=O)[C@@H](Cc1cc(Br)c(O)c(Br)c1)NC(=O)N1CCC(N2Cc3ccccc3NC2=O)CC1)C(=O)N1CCN(c2ccncc2)CC1` [BIBN4096, 1-[N^2-[3,5-dibromo-N-[[4-(3,4-dihydro-2(1H)-oxoquinazolin-3-yl)-1-piperidinyl]carbonyl]-D-tyrosyl]-L-lysyl]-4-(4-pyridinyl)-piperazine]: the “bioavailability by oral route” value is “only limited bioavailability”.
